Here are results for 18 molecules from US20210015098A1, “MOLECULES HAVING PESTICIDAL UTILITY, AND INTERMEDIATES, COMPOSITIONS, AND PROCESSES, RELATED THERETO” (DOW AGROSCIENCES LLC, priority 2018, published 2021).

Structures are written as SMILES.

The test system of assay [1] is Beet Armyworm (Spodoptera exigua, LAPHEG). Put plainly: Bioassays on Beet Armyworm (BAW), 128-well diet tray assay. The assay is classed as in vivo. The conditions noted are these: Beet Armyworm, Table ABC Biological Results, read-out: BAW (rating). Here is the method: (§1) Certain molecules disclosed in this document were tested against BAW and CL using procedures described in the following examples. In the reporting of the results, the “BAW & CL Rating Table” was used (See Table Section).
Bioassays on BAW were conducted using a 128-well diet tray assay. One to five second instar BAW larvae were placed in each well (3 mL) of the diet tray that had been previously filled with 1 mL of artificial diet to which 50 μg/cm^2 of the test molecule (dissolved in 50 μL of 90:10 acetone-water mixture) had been applied (to each of eight wells) and then allowed to dry. Trays were covered with a clear self-adhesive cover, vented to allow gas exchange, and held at 25° C., 14:10 light-dark for five to seven days. Percent mortality was recorded for the larvae in each well; activity in the eight wells was then averaged. The results are indicated in the table entitled “Table ABC: Biological Results” (See Table Section).

In assay [2] the test system is Cabbage Looper (Trichoplusia ni, TRIPNI). Put plainly: Bioassays on Cabbage Looper (CL), 128-well diet tray assay. In kind it is in vivo. As to conditions: Cabbage Looper, Table ABC Biological Results, read-out: CL (rating). As to the method: as §1
Bioassays on CL were conducted using a 128-well diet tray assay. One to five second instar CL larvae were placed in each well (3 mL) of the diet tray that had been previously filled with 1 mL of artificial diet to which 50 μg/cm^2 of the test molecule (dissolved in 50 μL of 90:10 acetone-water mixture) had been applied (to each of eight wells) and then allowed to dry. Trays were covered with a clear self-adhesive cover, vented to allow gas exchange, and held at 25° C., 14:10 light-dark for five to seven days. Percent mortality was recorded for the larvae in each well; activity in the eight wells was then averaged. The results are indicated in the table entitled “Table ABC: Biological Results” (See Table Section).

Turning to `O=C(CSC(F)(F)F)Nc1c(F)ccc(NC(=O)c2cc(NC(=O)[C@H]3[C@H](c4cc(C(F)(F)F)cc(C(F)(F)F)c4)C3(Cl)Cl)ccc2Cl)c1F` (relative stereo) [F48, trans-5-(3-(3,5-Bis(trifluoromethyl)phenyl)-2,2-dichlorocyclopropane-1-carboxamido)-2-chloro-N-(2,4-difluoro-3-(2-((trifluoromethyl)thio)acetamido)phenyl)benzamide], the pest or weed control at 50 µg/cm2 in assay [1] and in assay [2] was 50 to 100% in each case.

Turning to `CSC(F)(F)C(=O)Nc1c(F)ccc(NC(=O)c2cc(NC(=O)[C@H]3[C@H](c4ccc(F)c(C(F)(F)F)c4)C3(Cl)Cl)ccc2Cl)c1F` [F1, 2-Chloro-5-((1R,3R)-2,2-dichloro-3-(4-fluoro-3-(trifluoromethyl)phenyl)cyclopropane-1-carboxamido)-N-(3-(2,2-difluoro-2-(methylthio)acetamido)-2,4-difluorophenyl)benzamide], the pest or weed control at 50 µg/cm2 in assay [1] and in assay [2] was 50 to 100% each time.

Regarding `O=C(CSc1ccncc1)Nc1c(F)ccc(NC(=O)c2cc(NC(=O)[C@H]3[C@H](c4ccc(F)c(C(F)(F)F)c4)C3(Cl)Cl)ccc2Cl)c1F` [F2, 2-Chloro-5-((1R,3R)-2,2-dichloro-3-(4-fluoro-3-(trifluoromethyl)phenyl)cyclopropane-1-carboxamido)-N-(2,4-difluoro-3-(2-(pyridin-4-ylthio)acetamido)phenyl)benzamide], the pest or weed control at 50 µg/cm2 in assay [1] and in assay [2] was 50 to 100% in each case.

With `O=C(CSc1ccc(F)cc1)Nc1c(F)ccc(NC(=O)c2cc(NC(=O)[C@H]3[C@H](c4ccc(F)c(C(F)(F)F)c4)C3(Cl)Cl)ccc2Cl)c1F` [F4, 2-Chloro-5-((1R,3R)-2,2-dichloro-3-(4-fluoro-3-(trifluoromethyl)phenyl)cyclopropane-1-carboxamido)-N-(2,4-difluoro-3-(2-((4-fluorophenyl)thio)acetamido)phenyl)benzamide], the pest or weed control at 50 µg/cm2 in assay [1] and in assay [2] was 50 to 100% in each case.

With `O=C(CSCCC(F)(F)F)Nc1c(F)ccc(NC(=O)c2cc(NC(=O)[C@H]3[C@H](c4ccc(F)c(C(F)(F)F)c4)C3(Cl)Cl)ccc2Cl)c1F` [F5, 2-Chloro-5-((1R,3R)-2,2-dichloro-3-(4-fluoro-3-(trifluoromethyl)phenyl)cyclopropane-1-carboxamido)-N-(2,4-difluoro-3-(2-((3,3,3-trifluoropropyl)thio)acetamido)phenyl)benzamide], the pest or weed control at 50 µg/cm2 in assay [1] and in assay [2] was 50 to 100% throughout.

Take `O=C(CSCC(F)(F)F)Nc1c(F)ccc(NC(=O)c2cc(NC(=O)[C@H]3[C@H](c4cc(Cl)c(Cl)c(Cl)c4)C3(Cl)Cl)ccc2Cl)c1F` [F6, 2-Chloro-5-((1R,3R)-2,2-dichloro-3-(3,4,5-trichlorophenyl)cyclopropane-1-carboxamido)-N-(2,4-difluoro-3-(2-((2,2,2-trifluoroethyl)thio)acetamido)phenyl)benzamide]: the pest or weed control at 50 µg/cm2 in assay [1] and in assay [2] was 50 to 100% each time.

Take `CC(SC(F)(F)F)C(=O)Nc1c(F)ccc(NC(=O)c2cc(NC(=O)[C@H]3[C@H](c4cc(Cl)c(Cl)c(Cl)c4)C3(Cl)Cl)ccc2Cl)c1F` (stereo partly drawn) [F7, 2-Chloro-5-((1R,3R)-2,2-dichloro-3-(3,4,5-trichlorophenyl)cyclopropane-1-carboxamido)-N-(2,4-difluoro-3-(2-((trifluoromethyl)thio)propanamido)phenyl)benzamide]: the pest or weed control at 50 µg/cm2 in assay [1] and in assay [2] was 50 to 100% in each case.

For `O=C(CSC(F)(F)F)Nc1c(F)ccc(NC(=O)c2cc(NC(=O)[C@H]3[C@H](c4cc(Cl)c(Cl)c(Cl)c4)C3(Cl)Cl)ccc2Cl)c1F` [F8, 2-Chloro-5-((1R,3R)-2,2-dichloro-3-(3,4,5-trichlorophenyl)cyclopropane-1-carboxamido)-N-(2,4-difluoro-3-(2-((trifluoromethyl)thio)acetamido)phenyl)benzamide], the pest or weed control at 50 µg/cm2 in assay [1] and in assay [2] was 50 to 100% throughout.

For the molecule `O=C(CSCC(F)(F)F)Nc1c(F)ccc(NC(=O)c2cc(NC(=O)[C@H]3[C@H](c4ccc(Cl)c(Cl)c4)C3(Cl)Cl)ccc2Cl)c1F` [F9, 2-Chloro-5-((1R,3R)-2,2-dichloro-3-(3,4-dichlorophenyl)cyclopropane-1-carboxamido)-N-(2,4-difluoro-3-(2-((2,2,2-trifluoroethyl)thio)acetamido)phenyl)benzamide], the pest or weed control at 50 µg/cm2 in assay [1] and in assay [2] was 50 to 100% throughout.

With `CC(SC(F)(F)F)C(=O)Nc1c(F)ccc(NC(=O)c2cc(NC(=O)[C@H]3[C@H](c4ccc(Cl)c(Cl)c4)C3(Cl)Cl)ccc2Cl)c1F` (stereo partly drawn) [F10, 2-Chloro-5-((1R,3R)-2,2-dichloro-3-(3,4-dichlorophenyl)cyclopropane-1-carboxamido)-N-(2,4-difluoro-3-(2-((trifluoromethyl)thio)propanamido)phenyl)benzamide], the pest or weed control at 50 µg/cm2 in assay [1] and in assay [2] was 50 to 100% each time.

`O=C(CSC(F)(F)F)Nc1c(F)ccc(NC(=O)c2cc(NC(=O)[C@H]3[C@H](c4ccc(Cl)c(Cl)c4)C3(Cl)Cl)ccc2Cl)c1F` [F11, 2-Chloro-5-((1R,3R)-2,2-dichloro-3-(3,4-dichlorophenyl)cyclopropane-1-carboxamido)-N-(2,4-difluoro-3-(2-((trifluoromethyl)thio)acetamido)phenyl)benzamide]: the pest or weed control at 50 µg/cm2 in assay [1] and in assay [2] was 50 to 100% throughout.

For `O=C(CSCC(F)(F)F)Nc1c(F)ccc(NC(=O)c2cc(NC(=O)[C@H]3[C@H](c4ccc(F)c(Cl)c4)C3(Cl)Cl)ccc2Cl)c1F` [F12, 2-Chloro-5-((1R,3R)-2,2-dichloro-3-(3-chloro-4-fluorophenyl)cyclopropane-1-carboxamido)-N-(2,4-difluoro-3-(2-((2,2,2-trifluoroethyl)thio)acetamido)phenyl)benzamide], the pest or weed control at 50 µg/cm2 in assay [1] and in assay [2] was 50 to 100% throughout.

For `CC(SC(F)(F)F)C(=O)Nc1c(F)ccc(NC(=O)c2cc(NC(=O)[C@H]3[C@H](c4ccc(F)c(Cl)c4)C3(Cl)Cl)ccc2Cl)c1F` (stereo partly drawn) [F13, 2-Chloro-5-((1R,3R)-2,2-dichloro-3-(3-chloro-4-fluorophenyl)cyclopropane-1-carboxamido)-N-(2,4-difluoro-3-(2-((trifluoromethyl)thio)propanamido)phenyl)benzamide], the pest or weed control at 50 µg/cm2 in assay [1] and in assay [2] was 50 to 100% each time.

`O=C(CSC(F)(F)F)Nc1c(F)ccc(NC(=O)c2cc(NC(=O)[C@H]3[C@H](c4ccc(F)c(Cl)c4)C3(Cl)Cl)ccc2Cl)c1F` [F14, 2-Chloro-5-((1R,3R)-2,2-dichloro-3-(3-chloro-4-fluorophenyl)cyclopropane-1-carboxamido)-N-(2,4-difluoro-3-(2-((trifluoromethyl)thio)acetamido)phenyl)benzamide]: the pest or weed control at 50 µg/cm2 in assay [1] and in assay [2] was 50 to 100% throughout.

As for `O=C(CCSc1ccccc1)Nc1c(F)ccc(NC(=O)c2cc(NC(=O)[C@H]3[C@H](c4ccc(F)c(C(F)(F)F)c4)C3(Cl)Cl)ccc2Cl)c1F` [F20, 2-Chloro-5-((1R,3R)-2,2-dichloro-3-(4-fluoro-3-(trifluoromethyl)phenyl)cyclopropane-1-carboxamido)-N-(2,4-difluoro-3-(3-(phenylthio)propanamido)phenyl)benzamide], the pest or weed control at 50 µg/cm2 in assay [1] and in assay [2] was 50 to 100% in each case.

Take `O=C(CCSC(F)(F)F)Nc1c(F)ccc(NC(=O)c2cc(NC(=O)[C@H]3[C@H](c4ccc(F)c(C(F)(F)F)c4)C3(Cl)Cl)ccc2Cl)c1F` [F22, 2-Chloro-5-((1R,3R)-2,2-dichloro-3-(4-fluoro-3-(trifluoromethyl)phenyl)cyclopropane-1-carboxamido)-N-(2,4-difluoro-3-(3-((trifluoromethyl)thio)propanamido)phenyl)benzamide]: the pest or weed control at 50 µg/cm2 in assay [1] and in assay [2] was 50 to 100% throughout.

With `O=C(C[S+]([O-])C(F)(F)F)Nc1c(F)ccc(NC(=O)c2cc(NC(=O)[C@H]3[C@H](c4cc(Cl)c(Cl)c(Cl)c4)C3(Cl)Cl)ccc2Cl)c1F` (stereo partly drawn) [F26, 2-Chloro-5-((1R,3R)-2,2-dichloro-3-(3,4,5-trichlorophenyl)cyclopropane-1-carboxamido)-N-(2,4-difluoro-3-(2-((trifluoromethyl)sulfinyl)acetamido)phenyl)benzamide], the pest or weed control at 50 µg/cm2 in assay [1] and in assay [2] was 50 to 100% throughout.

As to `CC(C(=O)Nc1c(F)ccc(NC(=O)c2cc(NC(=O)[C@H]3[C@H](c4ccc(F)c(Cl)c4)C3(Cl)Cl)ccc2Cl)c1F)[S+]([O-])C(F)(F)F` (stereo partly drawn) [F27, 2-Chloro-5-((1R,3R)-2,2-dichloro-3-(3-chloro-4-fluorophenyl)cyclopropane-1-carboxamido)-N-(2,4-difluoro-3-(2-((trifluoromethyl)sulfinyl)propanamido)phenyl)benzamide], the pest or weed control at 50 µg/cm2 in assay [1] and in assay [2] was 50 to 100% throughout.
